This test concerns BDF1 mice, B16 melanoma ip, median survival T/C. The experiment in a line: NCI In Vivo Anticancer Drug Screen. Data for tumor model B16 Melanoma (intraperitoneal) in B6D2F1 (BDF1) mice. Particulars: endpoint: median survival time, higher = longer survival. The procedure, abridged:
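Antitumor activity is assessed in mice bearing a transplanted tumor, with survival or tumor size compared against vehicle-dosed controls and expressed as T/C.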

Where [1] appears, read: dose: 25.0 mg/kg/injection, schedule: Q01DX009 (ip), vehicle: saline with Tween-80.
[2] abbreviates: dose: 50.0 mg/kg/injection, schedule: Q01DX009 (ip), vehicle: saline with Tween-80.
The mark [3] stands for this setting: dose: 100.0 mg/kg/injection, schedule: Q01DX009 (ip), vehicle: saline with Tween-80.
Setting [4] is: dose: 12.5 mg/kg/injection, schedule: Q01DX009 (ip), vehicle: Klucel (hydroxypropylcellulose) (HPC).
The mark [5] stands for this setting: dose: 50.0 mg/kg/injection, schedule: Q01DX009 (ip), vehicle: Klucel (hydroxypropylcellulose) (HPC).
The mark [6] stands for this setting: dose: 100.0 mg/kg/injection, schedule: Q01DX009 (ip), vehicle: Klucel (hydroxypropylcellulose) (HPC).
Where [7] appears, read: dose: 5.0 mg/kg/injection, schedule: Q01DX009 (ip), vehicle: saline.
[8] abbreviates: dose: 200.0 mg/kg/injection, schedule: Q01DX009 (ip), vehicle: saline with Tween-80.

Each structure is given as a SMILES string. Inconclusive results and toxic doses are left out.

For `CCOC(=O)C(C)(Br)C(=O)OCC`, the T/C was 110 % of control under setting [1]; 115 % of control (dose: 25.0 mg/kg/injection, schedule: Q04DX003 (ip), vehicle: saline); 102 % of control under setting [2]; 118 % of control (dose: 50.0 mg/kg/injection, schedule: Q04DX003 (ip), vehicle: saline); 95 % of control under setting [3]; 118 % of control (dose: 100.0 mg/kg/injection, schedule: Q04DX003 (ip), vehicle: saline).
With `Cc1cc2[nH]c(=O)[nH]c2cc1C`, the T/C under setting [2] was 97 % of control and the T/C under setting [3] is 90 % of control.
Regarding `CCCC(=O)OCc1ccc(Cl)c(Cl)c1`, the T/C reads like this: (dose: 16.5 mg/kg/injection, schedule: Q04DX003 (ip), vehicle: saline with Tween-80) 91 % of control; under setting [1], 93 % of control; (dose: 25.0 mg/kg/injection, schedule: Q04DX003 (ip), vehicle: saline with Tween-80) 102 % of control; (dose: 37.5 mg/kg/injection, schedule: Q04DX003 (ip), vehicle: saline with Tween-80) 102 % of control; under setting [2], 97 % of control; (dose: 50.0 mg/kg/injection, schedule: Q04DX003 (ip), vehicle: saline with Tween-80) 118 % of control. Moreover, the T/C is 100 % of control under setting [3] and 123 % of control (dose: 100.0 mg/kg/injection, schedule: Q04DX003 (ip), vehicle: saline with Tween-80).
Regarding `CCC1CN1P(=O)(N(CC)CC)N1CC1CC` (centres undefined), the T/C under setting [2] is 113 % of control and the T/C under setting [3] was 117 % of control.
On to `CCCCCCCCCCCC(O)CCCC` (centres undefined), for which the T/C (dose: 6.25 mg/kg/injection, schedule: Q01DX009 (ip), vehicle: Klucel (hydroxypropylcellulose) (HPC)) is 99 % of control and the T/C under setting [4] was 104 % of control.
Take `CCCCCCOP(=O)(CCCCCC)OCCCCCC`: the T/C reads like this: under setting [4], 91 % of control; under setting [5], 94 % of control; under setting [6], 97 % of control.
In the case of `CCOc1nsc(OCC)n1`, the T/C (dose: 12.5 mg/kg/injection, schedule: Q04DX003 (ip), vehicle: distilled water + Tween-80) is 103 % of control; the T/C (dose: 25.0 mg/kg/injection, schedule: Q04DX003 (ip), vehicle: distilled water + Tween-80) is 96 % of control; the T/C (dose: 50.0 mg/kg/injection, schedule: Q04DX003 (ip), vehicle: distilled water + Tween-80) was 99 % of control; the T/C (dose: 100.0 mg/kg/injection, schedule: Q04DX003 (ip), vehicle: distilled water + Tween-80) is 98 % of control.
Take `O=c1[nH]c(=O)n(C2CC(O)C(CO)O2)cc1F` (centres undefined): the T/C by setting is: under setting [7], 92 % of control; under setting [1], 173 % of control; under setting [3], 183 % of control; under setting [8], 86 % of control.
Take `[Cl][Ge]([Cl])([c]1ccccc1)[c]1ccccc1`: the T/C is 93 % of control (dose: 25.0 mg/kg/injection, schedule: Q01DX009 (ip), vehicle: Klucel (hydroxypropylcellulose) (HPC)) and 100 % of control under setting [5].
Consider `Cn1cnc([N+](=O)[O-])c1Sc1nc(N)nc2c1ncn2C1OC(CO)C(O)C1O` (centres undefined), for which, where the note is “dose: 12.5 mg/kg/injection, schedule: Q01DX009 (ip), vehicle: suspension in saline”, the T/C was 91 % of control.
Regarding `COc1ccc(NC(=O)Oc2ccc(Cl)c(C)c2)cc1`, the T/C runs as follows: under setting [8], 116 % of control; (dose: 400.0 mg/kg/injection, schedule: Q01DX009 (ip), vehicle: saline with Tween-80) 105 % of control.
Regarding `O=C(/C=C/C(=O)Oc1c(Cl)c(Cl)c(Cl)c(Cl)c1Cl)Oc1c(Cl)c(Cl)c(Cl)c(Cl)c1Cl`, under setting [6], the T/C was 86 % of control.
Take `CCOC(=O)N(Cc1ccccc1)C1CC1`: the T/C is 101 % of control (dose: 0.78 mg/kg/injection, schedule: Q04DX003 (ip), vehicle: saline); 93 % of control (dose: 1.56 mg/kg/injection, schedule: Q04DX003 (ip), vehicle: saline); 97 % of control (dose: 3.12 mg/kg/injection, schedule: Q04DX003 (ip), vehicle: saline); 101 % of control (dose: 6.25 mg/kg/injection, schedule: Q04DX003 (ip), vehicle: saline); 105 % of control (dose: 12.5 mg/kg/injection, schedule: Q04DX003 (ip), vehicle: saline); 105 % of control (dose: 25.0 mg/kg/injection, schedule: Q01DX009 (ip), vehicle: saline). Moreover, the T/C is 100 % of control (dose: 50.0 mg/kg/injection, schedule: Q01DX009 (ip), vehicle: saline); 94 % of control (dose: 100.0 mg/kg/injection, schedule: Q01DX009 (ip), vehicle: saline); 102 % of control (dose: 200.0 mg/kg/injection, schedule: Q01DX009 (ip), vehicle: saline); 107 % of control (dose: 400.0 mg/kg/injection, schedule: Q01DX009 (ip), vehicle: saline).
`COC1CCCCC1I` (centres undefined): the T/C is 100 % of control (dose: 50.0 mg/kg/injection, schedule: Q01DX009 (ip), vehicle: alcohol); 95 % of control (dose: 75.0 mg/kg/injection, schedule: Q04DX003 (ip), vehicle: alcohol); 92 % of control (dose: 100.0 mg/kg/injection, schedule: Q01DX009 (ip), vehicle: alcohol); 92 % of control (dose: 150.0 mg/kg/injection, schedule: Q04DX003 (ip), vehicle: alcohol).
Regarding `COc1cc([C@@H]2c3cc4c(c(O)c3C[C@H]3COC(=O)[C@@H]32)OCO4)cc(OC)c1O`, the T/C is 97 % of control (dose: 0.12 mg/kg/injection, schedule: Q01DX009 (ip), vehicle: saline); 100 % of control (dose: 0.12 mg/kg/injection, schedule: Q01DX009 (ip), vehicle: suspension in saline); 97 % of control (dose: 0.25 mg/kg/injection, schedule: Q01DX009 (ip), vehicle: saline); 96 % of control (dose: 0.25 mg/kg/injection, schedule: Q01DX009 (ip), vehicle: suspension in saline); 107 % of control (dose: 0.5 mg/kg/injection, schedule: Q01DX009 (ip), vehicle: saline); 105 % of control (dose: 0.5 mg/kg/injection, schedule: Q01DX009 (ip), vehicle: suspension in saline). Under “dose: 1.0 mg/kg/injection, schedule: Q01DX009 (ip), vehicle: saline”, the T/C is 95 % of control.
For the compound `Nc1ccccc1.[C-]#[O+].[C-]#[O+].[C-]#[O+].[C-]#[O+].[C-]#[O+].[Cr]`, the T/C is, setting by setting: (dose: 2.5 mg/kg/injection, schedule: Q01DX009 (ip), vehicle: saline) 95 % of control; under setting [7], 114 % of control; (dose: 10.0 mg/kg/injection, schedule: Q01DX009 (ip), vehicle: saline) 108 % of control.
For the compound `CCOC(=O)c1[nH]cnc1/N=N/N(C)CCO`, the T/C runs as follows: (dose: 12.5 mg/kg/injection, schedule: Q01DX009 (ip), vehicle: carboxymethylcellulose (CMC)) 104 % of control; (dose: 25.0 mg/kg/injection, schedule: Q01DX009 (ip), vehicle: carboxymethylcellulose (CMC)) 118 % of control; (dose: 50.0 mg/kg/injection, schedule: Q01DX009 (ip), vehicle: carboxymethylcellulose (CMC)) 95 % of control; (dose: 100.0 mg/kg/injection, schedule: Q01DX009 (ip), vehicle: carboxymethylcellulose (CMC)) 100 % of control; (dose: 200.0 mg/kg/injection, schedule: Q01DX009 (ip), vehicle: carboxymethylcellulose (CMC)) 113 % of control.
Take `CC(OC(C)c1ccccc1)c1ccccc1` (centres undefined): the T/C is 113 % of control under setting [6]; 106 % of control (dose: 200.0 mg/kg/injection, schedule: Q01DX009 (ip), vehicle: Klucel (hydroxypropylcellulose) (HPC)); 103 % of control (dose: 400.0 mg/kg/injection, schedule: Q01DX009 (ip), vehicle: Klucel (hydroxypropylcellulose) (HPC)).

For the origin of these results see PubChem BioAssay AID192 (DTP/NCI, 2004).
